Test results as given in PubChem BioAssay (NCI).
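The compound was tested at five concentrations on cells cultured in 96-well plates, with a 48-hour exposure period. The concentration for 50% growth inhibition is given as GI50. The concentration for full growth arrest is given as TGI.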

What was measured:
Assay in all cases: growth of human tumour cells (NCI), 48 h
[1] = system: OVCAR-5 ovarian
[2] = system: SF-295 CNS
[3] = system: MDA-MB-435
[4] = system: KM12 colon
[5] = system: IGROV1 ovarian
[6] = system: SW-620 colon
[7] = system: SK-OV-3 ovarian
[8] = system: HOP-92 NSCLC
[9] = system: CAKI-1 renal
[10] = system: SR leukemia

SMILES: c1ccc(OCc2nnc(CCCCCCCCc3nnc(COc4ccccc4)o3)o2)cc1
- TGI [1]: > 100 µM
- TGI [2]: > 100 µM
- TGI [3]: > 100 µM
- TGI [4]: > 100 µM
- TGI [5]: > 100 µM
- TGI [6]: > 100 µM
- TGI [7]: > 100 µM
- TGI [8]: > 100 µM
- TGI [9]: > 100 µM

SMILES: CC(C)(C)CC(C)(C)NCC(O)COc1ccc(C(C)(C)c2ccc(OCC(O)CNC(C)(C)CC(C)(C)C)cc2)cc1 (stereo not drawn)
- TGI [1]: 3.32 µM
- TGI [2]: 3.21 µM
- GI50 [3]: 0.513 µM
- TGI [3]: 1.73 µM
- TGI [4]: 2.31 µM
- TGI [5]: 3.23 µM
- TGI [6]: 0.463 µM
- TGI [7]: 3.24 µM
- TGI [8]: 3 µM
- TGI [9]: 3.13 µM

SMILES: CCOC(=O)Cc1cc(=O)[nH]c(-n2[nH]c(C)c(CCO)c2=O)n1
- TGI [1]: > 100 µM
- TGI [2]: > 100 µM
- TGI [3]: > 100 µM
- TGI [4]: > 100 µM
- TGI [5]: > 100 µM
- TGI [6]: > 100 µM
- TGI [7]: > 100 µM
- TGI [9]: > 100 µM

SMILES: C=C(Cl)CN1c2ccccc2C=Cc2ccccc21
- TGI [1]: 50.8 µM
- TGI [2]: 35.2 µM
- TGI [3]: 44.7 µM
- TGI [4]: 48.9 µM
- TGI [5]: > 100 µM
- TGI [7]: > 100 µM
- TGI [8]: 61.2 µM
- TGI [9]: 52.9 µM

SMILES: Cc1ccc(S(=O)(=O)N/N=C\c2c3ccccc3[n+](C)c3ccccc23)cc1
- TGI [1]: > 100 µM
- TGI [2]: 30.3 µM
- TGI [4]: > 100 µM
- TGI [5]: > 100 µM
- TGI [6]: > 100 µM
- TGI [7]: > 100 µM
- TGI [8]: 73.2 µM
- TGI [9]: > 100 µM

SMILES: Clc1ncnc2c1nc(C#Cc1ccccc1)n2C1CCCCO1 (stereo not drawn)
- TGI [1]: 4.84 µM
- TGI [2]: 16.5 µM
- TGI [3]: 5.84 µM
- TGI [4]: 3.05 µM
- TGI [6]: 4.94 µM
- TGI [7]: 21.3 µM
- TGI [8]: 3.83 µM
- TGI [9]: 3.91 µM

SMILES: Nc1ccc(C(=O)O)cc1
- TGI [1]: > 100 µM
- TGI [10]: > 100 µM
- TGI [2]: > 100 µM
- TGI [3]: > 100 µM
- TGI [4]: > 100 µM
- TGI [5]: > 100 µM
- TGI [6]: > 100 µM
- TGI [8]: > 100 µM
- TGI [9]: > 100 µM

SMILES: CCCCCCCCCCOc1ccc(N=Nc2nnc(-c3ccc(OCCCCC)cc3)s2)cc1
- TGI [1]: > 100 µM
- TGI [2]: > 100 µM
- TGI [3]: > 100 µM
- TGI [4]: > 100 µM
- TGI [5]: > 100 µM
- TGI [6]: > 100 µM
- TGI [7]: > 100 µM
- TGI [8]: > 100 µM
- TGI [9]: > 100 µM

SMILES: COc1ccc(C2NC(N)=C(C#N)C3=C2C(C)CCC3)cc1OC (stereo not drawn)
- TGI [1]: > 100 µM
- TGI [10]: 23 µM
- TGI [2]: > 100 µM
- TGI [3]: > 100 µM
- TGI [4]: > 100 µM
- TGI [5]: > 100 µM
- TGI [6]: > 100 µM
- TGI [7]: > 100 µM
- TGI [9]: > 100 µM

SMILES: COC(=N)CCCl
- TGI [1]: > 100 µM
- TGI [10]: > 100 µM
- TGI [2]: > 100 µM
- TGI [4]: > 100 µM
- TGI [5]: > 100 µM
- TGI [6]: > 100 µM
- TGI [7]: > 100 µM
- TGI [8]: > 100 µM
- TGI [9]: > 100 µM

SMILES: Cc1ccsc1/C=N/Nc1cc(C)c2ccccc2n1
- TGI [1]: 90.3 µM
- TGI [2]: 37.8 µM
- TGI [3]: 30 µM
- TGI [4]: 46 µM
- TGI [5]: 6.33 µM
- TGI [6]: 48.7 µM
- TGI [7]: 35.6 µM
- TGI [8]: 28.1 µM
- TGI [9]: 41.1 µM

SMILES: COc1cc(-c2nc(SC)nc3c2CCc2ccccc2-3)cc(OC)c1OC
- TGI [1]: > 100 µM
- TGI [2]: > 100 µM
- TGI [3]: > 100 µM
- TGI [4]: > 100 µM
- TGI [5]: > 100 µM
- TGI [6]: > 100 µM
- TGI [7]: > 100 µM
- TGI [8]: > 100 µM

SMILES: Cc1ccc2c(=O)cc(-c3cccc(F)c3)[nH]c2n1
- TGI [1]: > 100 µM
- TGI [3]: 0.0224 µM
- TGI [4]: 1.29 µM
- TGI [5]: > 100 µM
- TGI [6]: > 100 µM
- TGI [8]: > 100 µM
- TGI [9]: > 100 µM

SMILES: CN1C/C(=C\c2cccs2)C(=O)/C(=C/c2cccs2)C1
- TGI [1]: 66.8 µM
- TGI [2]: > 100 µM
- TGI [3]: 34.1 µM
- TGI [4]: 83.3 µM
- TGI [5]: 92.2 µM
- TGI [6]: > 100 µM
- TGI [7]: > 100 µM
- TGI [8]: 67.3 µM
- TGI [9]: > 100 µM

SMILES: COc1ccc(/C=C(/c2ccc(OC)cc2)c2c(Cl)cc(Cl)c(/C(=C\c3ccc(OC)cc3)c3ccc(OC)cc3)c2N=Nc2ccccc2)cc1
- TGI [1]: > 100 µM
- TGI [2]: > 100 µM
- TGI [3]: > 100 µM
- TGI [4]: > 100 µM
- TGI [5]: > 100 µM
- TGI [6]: > 100 µM
- TGI [7]: > 100 µM
- TGI [8]: > 100 µM
- TGI [9]: > 100 µM

SMILES: NC(=S)NS(=O)(=O)c1ccc(Cl)cc1
- TGI [1]: > 100 µM
- TGI [2]: > 100 µM
- TGI [3]: > 100 µM
- TGI [4]: > 100 µM
- TGI [5]: > 100 µM
- TGI [6]: > 100 µM
- TGI [7]: > 100 µM
- TGI [9]: > 100 µM

SMILES: O=C(NNc1nc(-c2ccccc2)cs1)Nc1ccccc1
- TGI [1]: > 100 µM
- TGI [2]: 83.6 µM
- TGI [3]: 65.8 µM
- TGI [4]: > 100 µM
- TGI [5]: > 100 µM
- TGI [6]: > 100 µM
- TGI [7]: 52.2 µM
- TGI [9]: > 100 µM

SMILES: CCCCOc1ccc(S(=O)(=O)/N=C(\NO)Nc2ccc(Cl)cc2)cc1
- TGI [1]: 33.6 µM
- TGI [10]: 67.3 µM
- TGI [2]: 30.8 µM
- TGI [3]: 30.6 µM
- TGI [4]: 31.7 µM
- TGI [6]: 40.3 µM
- TGI [8]: 19.3 µM
- TGI [9]: 23.2 µM

SMILES: CCOC(=O)CCC(NC(=O)c1ccc(Nc2nc3ccccc3nc2C(=O)OCC)s1)C(=O)OCC (stereo not drawn)
- TGI [1]: > 100 µM
- TGI [10]: > 100 µM
- TGI [3]: > 100 µM
- TGI [4]: > 100 µM
- TGI [5]: > 100 µM
- TGI [6]: > 100 µM
- TGI [7]: > 100 µM
- TGI [8]: > 100 µM
- TGI [9]: > 100 µM

SMILES: Nc1ncc2c(n1)-c1ccccc1OC2
- TGI [1]: > 100 µM
- TGI [2]: > 100 µM
- TGI [4]: > 100 µM
- TGI [5]: > 100 µM
- TGI [6]: > 100 µM
- TGI [7]: > 100 µM
- TGI [8]: > 100 µM

SMILES: COc1cccc(N(CN2C(=O)CCC2OC)C(C)=O)c1 (stereo not drawn)
- TGI [1]: > 100 µM
- TGI [10]: > 100 µM
- TGI [2]: > 100 µM
- TGI [3]: > 100 µM
- TGI [4]: > 100 µM
- TGI [6]: > 100 µM
- TGI [7]: > 100 µM
- TGI [8]: > 100 µM
- TGI [9]: > 100 µM

SMILES: NS(=O)(=O)c1ccc(NCc2nc3ccccc3[nH]2)cc1
- TGI [1]: > 100 µM
- TGI [2]: > 100 µM
- TGI [3]: > 100 µM
- TGI [4]: > 100 µM
- TGI [5]: > 100 µM
- TGI [7]: > 100 µM
- TGI [8]: > 100 µM
- TGI [9]: > 100 µM

SMILES: CCN(CCC#N)C(=O)Nc1ccccc1
- TGI [1]: > 100 µM
- TGI [2]: > 100 µM
- TGI [3]: > 100 µM
- TGI [4]: > 100 µM
- TGI [5]: > 100 µM
- TGI [6]: > 100 µM
- TGI [7]: > 100 µM
- TGI [8]: > 100 µM
- TGI [9]: > 100 µM

SMILES: Cc1ccc(S(=O)(=O)NC(=O)NC(CC(=O)O)C(=O)O)cc1 (stereo not drawn)
- TGI [1]: > 100 µM
- TGI [10]: > 100 µM
- TGI [2]: > 100 µM
- TGI [4]: > 100 µM
- TGI [5]: > 100 µM
- TGI [6]: > 100 µM
- TGI [7]: > 100 µM
- TGI [8]: > 100 µM
